Values after ≈ are worked out from the molar mass of the structure shown.
Experiments:
C. albicans = assay: Minimum Inhibitory Concentration (MIC) (C. albicans), CLSI M27-A2; format: cell-based; details: Candida albicans; about 50% growth reduction; approximately 48 h at 35±1° C.
Procedure: A. Minimum Inhibitory Concentration (MIC) (C. albicans) Compounds of the present disclosure were assessed for their ability to inhibit the growth of common strains of fungus, C. albicans using a standardized procedure (CLSI M27-A2). Stock solutions of the test compounds and standards were prepared in DMSO at 1,600 μg/mL (C. albicans). Eleven, serial, one-half dilutions of compounds were prepared in 96-well plates in RPMI+MOPS. The assay concentration ranges were 8-0.001 μg/mL (C. albicans). Cell suspensions of C. albicans were prepared and added to each well at concentrations of approximately 3.7×10^3 colony-forming-units per milliliter (cfu/mL). All testing was in duplicate. The inoculated plates were incubated for approximately 48 h at 35±1° C. At the completion of incubation the wells of each plate were evaluated visually for the presence of fungal growth. […] For QC purposes C. krusei isolate ATCC 6258 (4.0×10^3 cfu/mL) was included in the VOR assay.

CYP2C9 = target: T1, CYP2C9 (Homo sapiens, UniProt P11712); assay: Inhibition of liver cytochrome P450 enzymes, isozyme 2C9; format: in vitro ADME; details: pooled human liver microsomes
T1 construct: from tissue; host or cells: pooled human liver microsomes
T1 sequence (P11712 whole entry): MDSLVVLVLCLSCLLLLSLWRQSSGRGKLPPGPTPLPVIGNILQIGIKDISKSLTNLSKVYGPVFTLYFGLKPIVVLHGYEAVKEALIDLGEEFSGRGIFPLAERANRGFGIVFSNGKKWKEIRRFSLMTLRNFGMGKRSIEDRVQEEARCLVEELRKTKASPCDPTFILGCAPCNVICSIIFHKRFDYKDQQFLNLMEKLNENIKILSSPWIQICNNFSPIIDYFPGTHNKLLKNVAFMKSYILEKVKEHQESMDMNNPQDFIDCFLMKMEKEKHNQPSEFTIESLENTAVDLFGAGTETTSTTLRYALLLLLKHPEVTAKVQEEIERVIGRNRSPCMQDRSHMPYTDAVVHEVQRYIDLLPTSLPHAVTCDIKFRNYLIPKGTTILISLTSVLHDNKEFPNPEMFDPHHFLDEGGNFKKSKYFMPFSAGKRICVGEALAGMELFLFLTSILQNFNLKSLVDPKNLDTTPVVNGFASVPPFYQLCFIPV
Procedure: (§1) B. […] Solutions of each test compound were separately prepared at concentrations of 20000, 6000, 2000, 600, 200, and 60 μM by serial dilution with DMSO:acetonitrile (MeCN) (50:50 v/v). The individual test compound solutions were then diluted 20-fold with DMSO:MeCN:deionized water (5:5:180 v/v/v) to concentrations of 1000, 300, 100, 30, 10, and 3 μM. […] The mixed inhibitor solutions were then diluted 20-fold with DMSO:MeCN:deionized water (5:5:180 v/v/v) to concentrations of 300, 100, 30, 10, 3, 1, 0.3, and 0.1 μM. The percent of organic solvent attributable to the test compound or inhibitor mixture in the final reaction mixture was 2% v/v. Pooled human liver microsome suspension (20 mg/mL) was diluted with phosphate buffer to obtain a 5 mg/mL suspension. A solution of NADPH was prepared in phosphate buffer at a concentration of 5 mM. Separate stock solutions of each substrate were prepared in DMSO:MeCN (50:50 v/v), mixed, and diluted in phosphate buffer to obtain a single solution containing each substrate at five times its experimentally determined Km concentration. […] A portion of the supernatant was analyzed by gradient reverse-phase HPLC with detection by electrospray ionization triple quadrupole mass spectrometry in the positive ion mode. Data was fitted to sigmoid dose-response curves and the inhibitory potency of each test compound was determined as its IC50 value.

CYP2C19 = target: T2, CYP2C19 (Homo sapiens, UniProt P33261); assay: Inhibition of liver cytochrome P450 enzymes, isozyme 2C19; format: in vitro ADME; details: pooled human liver microsomes
T2 construct: from tissue; host or cells: pooled human liver microsomes
T2 sequence (P33261 whole entry): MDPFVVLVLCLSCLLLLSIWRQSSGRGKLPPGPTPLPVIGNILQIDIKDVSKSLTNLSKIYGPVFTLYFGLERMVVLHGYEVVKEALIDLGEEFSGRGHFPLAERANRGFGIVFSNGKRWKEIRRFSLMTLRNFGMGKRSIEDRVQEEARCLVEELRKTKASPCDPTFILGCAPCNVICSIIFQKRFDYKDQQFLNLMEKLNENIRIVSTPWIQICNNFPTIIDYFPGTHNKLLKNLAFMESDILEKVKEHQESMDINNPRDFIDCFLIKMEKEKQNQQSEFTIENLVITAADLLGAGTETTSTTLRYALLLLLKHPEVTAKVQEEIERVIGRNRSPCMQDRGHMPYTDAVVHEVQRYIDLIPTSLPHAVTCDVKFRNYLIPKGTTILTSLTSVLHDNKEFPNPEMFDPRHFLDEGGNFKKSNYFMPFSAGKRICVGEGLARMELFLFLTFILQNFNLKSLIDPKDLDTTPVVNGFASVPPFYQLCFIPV
Procedure: as §1

CYP3A4 = target: T3, CYP3A4 (Homo sapiens, UniProt P08684); assay: Inhibition of liver cytochrome P450 enzymes, isozyme 3A4; format: in vitro ADME; details: pooled human liver microsomes
T3 construct: from tissue; host or cells: pooled human liver microsomes
T3 sequence (P08684 whole entry): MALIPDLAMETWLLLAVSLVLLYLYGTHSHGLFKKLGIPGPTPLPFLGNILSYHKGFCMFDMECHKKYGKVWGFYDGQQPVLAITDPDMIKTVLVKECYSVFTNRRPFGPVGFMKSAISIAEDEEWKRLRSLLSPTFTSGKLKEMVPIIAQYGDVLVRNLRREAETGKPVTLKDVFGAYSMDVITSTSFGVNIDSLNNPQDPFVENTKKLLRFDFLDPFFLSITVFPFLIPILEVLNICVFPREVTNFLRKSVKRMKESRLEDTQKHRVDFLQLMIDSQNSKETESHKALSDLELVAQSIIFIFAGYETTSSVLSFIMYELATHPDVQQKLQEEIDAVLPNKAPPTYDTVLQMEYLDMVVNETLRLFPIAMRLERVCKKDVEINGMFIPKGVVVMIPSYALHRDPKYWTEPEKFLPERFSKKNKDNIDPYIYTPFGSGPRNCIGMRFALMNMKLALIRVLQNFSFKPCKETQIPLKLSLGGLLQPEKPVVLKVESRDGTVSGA
Procedure: as §1

[1] = system: Septoria tritici (ATCC 26517); assay: Minimum Inhibitory Concentration (MIC) vs. Septoria tritici; format: cell-based; details: Zymoseptoria tritici, ATCC26517, 168 h; 50% reduction in growth of S. tritici; 22° C., seven days; read-out: Septoria Rating (MIC)
How it was run: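 Growth inhibition of S. tritici by CLSI-based filamentous-fungus microdilution, 2-fold series 16 to 0.016 μg/mL in RPMI-1640/MOPS with 2% DMSO. Inoculum approximately 5×10^4 cfu/mL; plates incubated 22° C, seven days, dark, unshaken.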

[2] = system: Puccinia recondita tritici = Puccinia triticina; assay: Fungicidal activity vs. leaf rust on wheat plants; format: in vivo; details: 50 ppm spray on wheat (Yuma), inoculated the following day, evaluated 7-9 days later; read-out: Puccinia Rating (% Disease Control @ 50 ppm)
How it was run: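 Wheat seedlings were sprayed to wetness with compound at 50 ppm in 10% acetone/Triton X100 water, at about 1500 L/ha. They were inoculated with P. recondita tritici spores the following day and held overnight at high humidity before greenhouse growth. Disease severity was rated 7-9 days later on a rating scale.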

| SMILES | MIC (C. albicans) [µg/mL] | IC50 (CYP2C9) [µM] | IC50 (CYP2C19) [µM] | IC50 (CYP3A4) [µM] | MIC [1] [µg/mL] | pest or weed control at 50 ppm [2] [%] |
| --- | --- | --- | --- | --- | --- | --- |
| N#Cc1ccc(Oc2ccc(C(F)(F)C(O)(Cn3cnnn3)c3ccc(F)cc3F)nc2)cc1 (stereo not drawn) [Compound 5, 4-(6-(2-(2,4-Difluorophenyl)-1,1-difluoro-2-hydroxy-3-(1H-tetrazol-1-yl)propyl)pyridin-3-yloxy)benzonitrile] | 0.031 (≈ 0.0659 µM) | 31 | 16 | 16 | ≤ 0.5 | 80 to 100 |
| OC(Cn1cnnn1)(c1ccc(F)cc1F)C(F)(F)c1ccc(OCc2cccc(F)c2)cn1 (stereo not drawn) [Compound 3, 2-(2,4-Difluorophenyl)-1,1-difluoro-1-(5-(3-fluorobenzyloxy)pyridin-2-yl)-3-(1H-tetrazol-1-yl)propan-2-ol] | 0.002 (≈ 0.00419 µM) | 12 | 11 | 8.4 | ≤ 0.5 | 80 to 100 |
